Like-named read-outs stand apart in the source and are kept apart here.

The conditions of data set [1]: Unna 1916; cited from earlier work.
Data set [2] has as its target T1, 5-LO (Bos taurus, UniProt F1MQ78).
T1 construct: Polymorphonuclear leukocytes (PMNL) were prepared from sodium EDTA-anticoagulated bovine blood; endogenous in cells; host or cells: bovine polymorphonuclear leukocytes isolated from EDTA-anticoagulated blood (intact cells, A23187-stimulated)
T1 sequence (F1MQ78 1-674): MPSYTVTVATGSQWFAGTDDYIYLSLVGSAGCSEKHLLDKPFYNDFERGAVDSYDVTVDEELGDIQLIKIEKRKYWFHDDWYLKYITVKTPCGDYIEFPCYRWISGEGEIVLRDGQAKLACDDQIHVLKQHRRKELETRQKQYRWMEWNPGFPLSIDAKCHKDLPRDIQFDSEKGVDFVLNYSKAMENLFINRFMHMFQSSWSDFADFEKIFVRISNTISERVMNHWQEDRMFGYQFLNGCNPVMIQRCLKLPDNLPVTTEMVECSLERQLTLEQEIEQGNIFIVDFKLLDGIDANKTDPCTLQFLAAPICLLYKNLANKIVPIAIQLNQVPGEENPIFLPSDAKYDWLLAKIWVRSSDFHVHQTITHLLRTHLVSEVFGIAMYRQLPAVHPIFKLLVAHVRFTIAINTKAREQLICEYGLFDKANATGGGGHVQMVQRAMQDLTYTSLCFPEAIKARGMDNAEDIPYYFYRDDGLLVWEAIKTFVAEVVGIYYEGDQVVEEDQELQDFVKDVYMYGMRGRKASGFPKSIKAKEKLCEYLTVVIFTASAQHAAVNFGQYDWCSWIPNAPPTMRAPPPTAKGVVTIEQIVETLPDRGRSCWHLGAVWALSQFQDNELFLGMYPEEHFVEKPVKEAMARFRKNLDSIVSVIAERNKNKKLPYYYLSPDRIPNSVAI
The experiment in a line: Bovine PMNL 5-Lipoxygenase Assay (inhibition of 5-HETE and LTB4 biosynthesis). In kind it is cell-based. The following applies: for inhibition at 30 µM: PMNL, read-out: 5-LO percent inhibition. The procedure:
Polymorphonuclear leukocytes (PMNL) were prepared from sodium EDTA-anticoagulated bovine blood, essentially as described by Walstra, P. et al., "Leukotriene Formation by Bovine Polymorphonuclear Leukocytes", Biochim. Biophys. Acta, 795,499-503 (1984). Contaminating platelets were removed by repeated centrifugations at 100 g for 20 min. The purified PMN leukocytes were suspended at a concentration of 1×10^7 cells/ml in phosphate buffered saline (PBS, composed of 8.00 g NaCl, 0.20 g KCl, 1.00 g Na2 HPO4 .cndot.2H2 O, 0.15 g NaH2 PO4 .cndot.H2 O, 0.20 g KH2 PO4, adjusted to pH 7.4 with 3 N NH3 in a final volume of 1000 ml of double distilled H2 O). Cell counts were conducted with a Sysmex microcellcounter CC-130. Preincubation was performed with 2.4 ml of the suspension and 10 μl of a DMSO stock solution of each test compound at the desired concentration in PBS or vehicle control (DMSO at final concentration of 0.4%) for 15 min at 37° C. in a shaking water bath. The syntheses of LTB 4 and 5-HETE were stimulated by the addition of CaCl2 and Ca-ionophore A23187 (final concentrations 2 mM and 20 μM, respectively), and the incubation was conducted for 10 min at 37° C. 5-LO product formation was terminated by the addition of 3.0 ml of methanol/acetonitrile (1+1) containing NDGA as radical scavenger (final concentration 0.01 mM) and prostaglandin B2 PG B2 as chromatographic marker (final concentration 0.3 μM). The incubation mixture was kept in an ice bath for 20 min and then centrifuged at 4000 g for 5 min at 0° C. The supernatant was diluted with 5 ml of water and passed through a prewashed (10 ml of methanol and 5 ml of water, sequentially) octadecylsilane reversed phase cartridge (Baker). The eicosanoids were eluted with 3 ml of methanol, diluted with 3 ml of water and subjected to reversed phase high performance liquid chrometography (HPLC) analysis, performed on a 250×4 mm column packed with Nucleosil C18 (7 μm particles; Bischoff, Leonberg, Germany). The isocratic elution conditions of LTB4 were tetrahydrofuran (THF)/methanol/water/acetic acid (25+30+45+0.1), adjusted to pH 5.5 with concentrated NH3, at a flow rate of 0.9 ml/min (Kontron 420 pump), monitored at 280 nm with a Kontron 735 LC UV detector, whereas 5-HETE was monitored at 232 nm using methanol/water/acetic acid (77+23+0.1), pH 5.5,flow rate 1.0ml/min. Data were recorded on a MacLab data acquisition system (WissTech, Germany) and analysis was performed with the application Peaks on an Apple Macintosh Quadra 700 computer. Integrated areas of the peaks were compared to the PGB2 internal standard and to external standards of test samples. Molar absorption coefficients of Samuelsson et al., Borgeat, P. and B. Samuelsson, "Arachidonic Acid Metabolism in Polymorphonuclear Leukocytes: Effects of Ionophore A23187", Proc. Nat. Acad. Sci. USA, 76, 2148-2152 (1979), were used for calculations. Inhibition was calculated by comparison of the mean values of test compound (n=3) with control (n=6-8) activity: (1-test compound/control)×100.
By the above method, the anthracenone derivatives of the invention were evaluated for their ability to inhibit the production of LTB4 and 5-HETE in isolated bovine polymorphonuclear leucocytes (PMNL), see Walstra, P. et al., "Leukotriene Formation by Bovine Polymorphonuclear Leukocytes", Biochim. Biophys. Acta, 795,499-503 (1984); Dannhardt, G. and also M. Lehr, "In-Vitro Evaluation of 5-Lipoxygenase and Cyclo-Oxygenase Inhibitors Using Bovine Neutrophils and Platelets and HPLC", J. Pharm. Pharmacol., 44, 419-424 (1992). LTB4 and 5-HETE concentrations were measured by reversed-phase HPLC with UV detection.

Data set [3] relates to HaCaT cells. Kind of data set: Antiproliferative Activity Assay, HaCaT cell growth. The format is cell-based, human. The settings on record: 48 h. The procedure:
HaCaT cells, a rapidly multiplying human keratinocyte cell line, were grown in Dulbecco's modified Eagle medium (DMEM), No. 041-11965A, Gibco) supplemented with 10% fetal calf serum, penicillin (100U/ml), streptomycin (100 μg/ml) in a humidified incubator containing 8% CO2 at 37° C. Cells ([…] /1.1 ml suspension per well) were seeded on 24-wells-multidishes and grown in DMEM. After 24 hours growth the medium was replaced with fresh medium and the test compounds (0.1-5 μM) were added. […] Controls were performed with DMSO or with medium alone. Forty-eight hours after addition of the test compound to the culture, the medium was removed and each well was rinsed with 100 μL PBS. The cells were then incubated with sterile 0.5% trypsin, 0.2% EDTA in PBS for 20 minutes at 37° C. The detached cells from each well were suspended in DMEM and dispersed into single cells by gentle pipetting through an Eppendorf pipette, and cell growth was determined directly by counting the keratinocytes in a Neubauer counting chamber using phase contrast microscopy. Inhibition was calculated by comparison of the mean values of the test compound (N=3) with the control (N=6-8) activity: (1-test compound/control)×100.

Data set [4] relates to LTB4 production in human neutrophils. The settings on record: depending on cell density, read-out: Inhibition of production of LTB4, IC50; cited from earlier work.
The conditions of data set [5]: therapeutic application; cited from earlier work.
Data set [6] deals with LTB4 production in bovine neutrophils. The settings on record: read-out: Inhibition of production of LTB4, IC50; cited from earlier work.
[7] abbreviates: Homo sapiens, HaCaT, HaCaT cells, N = 3, read-out: AA IC50 (antiproliferative activity).
The mark [8] stands for this setting: HaCaT cells, N = 3, read-out: AA IC50 (antiproliferative activity).

Consider `O=C1c2ccccc2Cc2cccc(O)c21` [1-hydroxy-9(10H)-anthracenone], for which the “Therapeutic effect in psoriasis” value in data set [1] was “effective in the treatment of psoriasis”.
For the molecule `COC(=O)CSC1c2cccc(O)c2C(=O)c2c(O)cccc21` [3-A, reference compound], the values for the IC50 in data set [2] and in data set [3] (setting [7]) were 13000 nM and 190000 nM, respectively.
As for `CCOC(=O)CSC1c2cccc(O)c2C(=O)c2c(O)cccc21` [3-B, reference compound], the inhibition (in general, the share of the control response that was lost under treatment) at 30 µM in data set [2] came to 42%. Further, the IC50 (in general, the point on the concentration scale where inhibition reaches its midpoint) in data set [3] (setting [7]) is 4520 nM.
On to `O=C1c2c(O)cccc2C(SCc2ccccc2)c2cccc(O)c21` [4A, reference compound], for which the inhibition at 30 µM in data set [2] stood at 46%. Further, in data set [3] (Homo sapiens, HaCaT, read-out: AA IC50 (antiproliferative activity)), the IC50 worked out at 1400 nM.
On to `CCCCOC(=O)CSC1c2cccc(O)c2C(=O)c2c(O)cccc21` [Compound 3a], for which, in data set [2], the inhibition at 30 µM was found to be 8%. Also, the IC50 in data set [3] (setting [7]) came out at 2100 nM.
As for `CC(SC1c2cccc(O)c2C(=O)c2c(O)cccc21)C(=O)O` (centres unmarked) [Compound 3b], the inhibition at 30 µM in data set [2] was found to be 28%. The IC50 in data set [3] (setting [7]) turned out to be 200 nM.
As for `COC(=O)CCSC1c2cccc(O)c2C(=O)c2c(O)cccc21` [Compound 3c], the IC50 in data set [2] (read-out: 5-LO IC50) turned out to be 15000 nM; in data set [3] (setting [7]), 1100 nM.
Take `CCOC(=O)CCSC1c2cccc(O)c2C(=O)c2c(O)cccc21` [Compound 3d]: the inhibition at 30 µM in data set [2] came to 30%. Moreover, the IC50 in data set [3] (setting [7]) was 1600 nM.
Taken in the same sequence, the figures for `CCCCOC(=O)CCSC1c2cccc(O)c2C(=O)c2c(O)cccc21` [Compound 3e] were 62% and 2300 nM.
With `O=C1c2c(O)cccc2C(SCCCS)c2cccc(O)c21` [Compound 3f], the inhibition at 30 µM in data set [2] was determined as 14%. For the same molecule, the IC50 in data set [3] (setting [7]) worked out at 770 nM.
On to `COc1ccccc1SC1c2cccc(O)c2C(=O)c2c(O)cccc21` [Compound 3i], for which the values for the IC50 in data set [2] (read-out: 5-LO IC50) and in data set [3] (setting [7]) were 6300 nM and 4250 nM, respectively.
Turning to `COc1cccc(SC2c3cccc(O)c3C(=O)c3c(O)cccc32)c1` [Compound 3j], in data set [2], the inhibition at 30 µM stood at 100%. Also, in data set [3] (setting [7]), the IC50 turned out to be 1800 nM.
Consider `COc1ccc(SC2c3cccc(O)c3C(=O)c3c(O)cccc32)cc1` [Compound 3k], for which the values for the IC50 in data set [2] (read-out: 5-LO IC50) and in data set [3] (setting [7]) were 3200 nM and 1690 nM, respectively.
Consider `Nc1ccccc1SC1c2cccc(O)c2C(=O)c2c(O)cccc21` [Compound 3l], for which the IC50 in data set [2] (read-out: 5-LO IC50) was 2400 nM; in data set [3] (HaCaT cells, N = 3, listed as 31, read-out: AA IC50 (antiproliferative activity)) it was at most 100 nM; in data set [3] (setting [7]) it was 100 nM.
For `Nc1cccc(SC2c3cccc(O)c3C(=O)c3c(O)cccc32)c1` [Compound 3m], the IC50 in data set [2] (read-out: 5-LO IC50) was found to be 2400 nM; in data set [3] (setting [7]) it was 1900 nM.
The matching figures for `Nc1ccc(SC2c3cccc(O)c3C(=O)c3c(O)cccc32)cc1` [Compound 3n]: 7500 nM and 900 nM.
Taken in the same sequence, the figures for `O=C1c2c(O)cccc2C(Sc2ccccc2O)c2cccc(O)c21` [Compound 4a] were 5000 nM and 1750 nM.
Turning to `O=C1c2c(O)cccc2C(Sc2ccc(O)cc2)c2cccc(O)c21` [Compound 4b, 1,8-Dihydroxy-10-[(4-hydroxyphenyl)thio]-9(10H)-anthracenone], the IC50 in data set [2] (read-out: 5-LO IC50) is 2400 nM; in data set [3] (setting [8]) it was at most 100 nM; in data set [3] (setting [7]) it was below 100 nM.
In the case of `O=C1c2c(O)cccc2C(Sc2ccccc2S)c2cccc(O)c21` [Compound 4c], the results for the IC50 in data set [3] (setting [8]) and in data set [3] (setting [7]) were at most 100 nM and 100 nM, respectively.
Consider `O=C1c2c(O)cccc2C(Sc2cccc(S)c2)c2cccc(O)c21` [Compound 4d], for which, in data set [3] (setting [7]), the IC50 is above 5000 nM.
For `O=C1c2c(O)cccc2Cc2cccc(O)c21` [anthralin, 1,8-dihydroxy-9(10H)-anthracenone], the IC50 is 37000 nM in data set [2] (read-out: 5-LO IC50), 7000 to 74000 nM in data set [4], 600 nM in data set [3] (setting [7]) and 37000 nM in data set [6]. In addition, the “Therapeutic effect in psoriasis” value in data set [1] is recorded as “effective in the treatment of psoriasis”. In addition, in data set [5], the “Irritation / side effects” value was “non-affected skin surrounding a psoriatic lesion to which anthralin is applied frequently becomes irritated”.
For `CCCC(=O)C1c2cccc(O)c2C(=O)c2c(O)cccc21` [butantrone, 10-Butyryl-Dithranol], in data set [5], the “Irritation / side effects” value is “elicits a widespread and delayed irritation effect in many patients”.

The values are drawn from patent publication US5705533A, “10-thio-substituted 1,8-dihydroxy-9 (10H) -anthracenone pharmaceuticals” (Teva Pharmaceutical Industries Ltd., priority 1995, dated 1998).
